From ChEMBL document CHEMBL1133531, “Carbonic anhydrase inhibitors: perfluoroalkyl/aryl-substituted derivatives of aromatic/heterocyclic sulfonamides as topical intraocular pressure-lowering agents with prolonged duration of action” (J Med Chem, 2000)

Assays:
Carbonic anhydrase 4 = molecular target: T1, Carbonic anhydrase 4 (Bos taurus, UniProt Q95323)
T1 sequence (Q95323 whole entry): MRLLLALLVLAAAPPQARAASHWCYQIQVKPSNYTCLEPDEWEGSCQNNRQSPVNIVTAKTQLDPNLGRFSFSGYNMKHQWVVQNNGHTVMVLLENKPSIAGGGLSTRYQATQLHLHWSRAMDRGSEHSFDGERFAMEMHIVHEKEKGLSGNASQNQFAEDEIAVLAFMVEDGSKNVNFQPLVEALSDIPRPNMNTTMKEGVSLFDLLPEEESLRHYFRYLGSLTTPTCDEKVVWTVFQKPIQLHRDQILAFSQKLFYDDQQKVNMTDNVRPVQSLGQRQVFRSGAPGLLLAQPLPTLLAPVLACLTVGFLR
Description: Inhibition of bovine carbonic anhydrase IV (CA4) from bovine lung microsomes

Carbonic anhydrase 1 = Carbonic anhydrase 1 (Homo sapiens, UniProt P00915)
Sequence of Carbonic anhydrase 1 (P00915 whole entry): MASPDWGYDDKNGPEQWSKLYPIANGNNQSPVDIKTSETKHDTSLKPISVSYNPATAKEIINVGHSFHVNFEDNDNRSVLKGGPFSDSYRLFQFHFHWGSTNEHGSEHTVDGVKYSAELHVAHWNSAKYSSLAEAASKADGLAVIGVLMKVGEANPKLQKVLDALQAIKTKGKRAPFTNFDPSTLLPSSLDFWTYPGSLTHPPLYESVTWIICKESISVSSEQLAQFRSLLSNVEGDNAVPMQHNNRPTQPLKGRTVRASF
Description: Inhibition of human recombinant carbonic anhydrase I (CA1)

| Compound | Ki (Carbonic anhydrase 4) [nM] | Ki (Carbonic anhydrase 1) [nM] |
| --- | --- | --- |
| NS(=O)(=O)c1nc2ccc(OCCOS(=O)(=O)C(F)(F)C(F)(F)C(F)(F)C(F)(F)F)cc2s1 | 6 | 19 |
| NS(=O)(=O)c1ccc(NNS(=O)(=O)C(F)(F)F)cc1 | 60800 | 156000 |
| NS(=O)(=O)c1nnc(NC(=O)CCNC(=O)C(F)(F)C(F)(F)C(F)(F)C(F)(F)C(F)(F)C(F)(F)C(F)(F)C(F)(F)F)s1 | 8 | 300 |
| NS(=O)(=O)c1nc2ccc(OCCOC(=O)c3c(F)c(F)c(F)c(F)c3F)cc2s1 | 11 | 65 |
| NS(=O)(=O)c1ccc(CNS(=O)(=O)c2c(F)c(F)c(F)c(F)c2F)cc1 | 240 | 790 |
| NS(=O)(=O)c1ccc(NS(=O)(=O)C(F)(F)C(F)(F)C(F)(F)C(F)(F)C(F)(F)C(F)(F)C(F)(F)C(F)(F)F)c(Br)c1 | 12500 | 2550 |
| NS(=O)(=O)c1ccc(CCNC(=O)C(F)(F)C(F)(F)C(F)(F)C(F)(F)C(F)(F)C(F)(F)C(F)(F)C(F)(F)F)cc1 | 520 | 950 |
| NS(=O)(=O)c1nnc(NS(=O)(=O)C(F)(F)F)s1 | 600 | 59800 |
| Cn1nc(S(N)(=O)=O)s/c1=N/S(=O)(=O)c1ccc(NS(=O)(=O)C(F)(F)F)cc1 | 33 | 1000 |
| NS(=O)(=O)c1nc2ccc(NS(=O)(=O)C(F)(F)C(F)(F)C(F)(F)C(F)(F)C(F)(F)C(F)(F)C(F)(F)C(F)(F)F)cc2s1 | 7 | 49 |
| NS(=O)(=O)c1cc(S(N)(=O)=O)c(NS(=O)(=O)C(F)(F)C(F)(F)C(F)(F)C(F)(F)F)c(Cl)c1Cl | 160 | 5100 |
| NS(=O)(=O)c1ccc(COS(=O)(=O)C(F)(F)C(F)(F)C(F)(F)C(F)(F)F)cc1 | 10600 | 24500 |
| Cn1nc(S(N)(=O)=O)s/c1=N/S(=O)(=O)c1ccc(NC(=O)C(F)(F)C(F)(F)C(F)(F)C(F)(F)C(F)(F)C(F)(F)C(F)(F)C(F)(F)F)cc1 | 12 | 900 |
| NS(=O)(=O)c1ccc(NS(=O)(=O)C(F)(F)C(F)(F)C(F)(F)C(F)(F)C(F)(F)C(F)(F)C(F)(F)C(F)(F)F)c(I)c1 | 15000 | 3400 |
| NS(=O)(=O)c1ccc(NS(=O)(=O)C(F)(F)F)c(Cl)c1 | 42000 | 180000 |
| NS(=O)(=O)c1cc(S(N)(=O)=O)c(NS(=O)(=O)C(F)(F)F)cc1Cl | 150 | 550 |
| NS(=O)(=O)c1ccc(NC(=O)c2c(F)c(F)c(F)c(F)c2F)c(Cl)c1 | 590 | 1080 |
| NS(=O)(=O)c1nc2ccc(OS(=O)(=O)c3c(F)c(F)c(F)c(F)c3F)cc2s1 | 6 | 25 |
| NS(=O)(=O)c1ccc(NS(=O)(=O)c2ccc(NS(=O)(=O)C(F)(F)C(F)(F)C(F)(F)C(F)(F)C(F)(F)C(F)(F)C(F)(F)C(F)(F)F)cc2)cc1 | 29 | 3000 |
| NS(=O)(=O)c1cccc(NS(=O)(=O)c2ccc(NS(=O)(=O)C(F)(F)C(F)(F)C(F)(F)C(F)(F)C(F)(F)C(F)(F)C(F)(F)C(F)(F)F)cc2)c1 | 33 | 3600 |
| NS(=O)(=O)c1ccc(CCNS(=O)(=O)C(F)(F)C(F)(F)C(F)(F)C(F)(F)F)cc1 | 240 | 12500 |
| NS(=O)(=O)c1ccc(NS(=O)(=O)c2c(F)c(F)c(F)c(F)c2F)cc1 | 410 | 890 |
| NS(=O)(=O)c1ccc(NS(=O)(=O)C(F)(F)C(F)(F)C(F)(F)C(F)(F)C(F)(F)C(F)(F)C(F)(F)C(F)(F)F)c(Cl)c1 | 10300 | 2480 |
| NS(=O)(=O)c1ccc(CCNS(=O)(=O)C(F)(F)F)cc1 | 50000 | 81300 |
| NS(=O)(=O)c1ccc(NS(=O)(=O)C(F)(F)C(F)(F)C(F)(F)C(F)(F)F)c(F)c1 | 200 | 1070 |
| NS(=O)(=O)c1nnc(NC(=O)C(F)(F)C(F)(F)C(F)(F)C(F)(F)C(F)(F)C(F)(F)C(F)(F)C(F)(F)F)s1 | 13 | 300 |
| NS(=O)(=O)c1nnc(NS(=O)(=O)c2ccc(NS(=O)(=O)C(F)(F)F)cc2)s1 | 25 | 1000 |
